Experimental data: BindingDB's records for patent US20240116922 (Biogen Ma, 2024)

target: T1, Interleukin-1 receptor-associated kinase 4 (Homo sapiens, UniProt Q9NWZ3); test: Biochemical Assay
T1 sequence (Q9NWZ3 whole entry): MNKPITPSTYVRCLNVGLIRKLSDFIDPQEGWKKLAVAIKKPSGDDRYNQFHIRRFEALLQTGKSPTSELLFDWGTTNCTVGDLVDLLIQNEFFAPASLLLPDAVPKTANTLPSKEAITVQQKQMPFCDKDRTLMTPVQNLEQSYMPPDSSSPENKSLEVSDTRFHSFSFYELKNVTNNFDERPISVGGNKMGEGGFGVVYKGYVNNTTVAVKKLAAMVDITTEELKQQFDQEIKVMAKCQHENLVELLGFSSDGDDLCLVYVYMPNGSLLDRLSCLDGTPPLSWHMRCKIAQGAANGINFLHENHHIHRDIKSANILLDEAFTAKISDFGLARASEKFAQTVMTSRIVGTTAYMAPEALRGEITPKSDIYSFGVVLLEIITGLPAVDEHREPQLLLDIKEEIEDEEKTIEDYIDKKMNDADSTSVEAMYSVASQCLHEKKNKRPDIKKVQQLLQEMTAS
Method: The 2-hour 1 mM ATP Biochemical Assay employed a MesoScale Detection (MSD) format. […] After a 1 hour incubation of the plate for 1 hour at room temperature with gentle mixing, the plate wells were washed 3 times with 50 mM Tris, pH 7.5, 150 mM NaCl, 0.02% Tween-20.A 25 μl volume of 1:500 anti-P-Threonine Rabbit polyclonal Antibody plus 1:500 Goat-anti-Rabbit Sulfo Tag Antibody (Meso Scale Discovery R32AB-1) in 50 mM Tris, pH 7.5, 150 mM NaCl, 0.02% Tween-20 plus 2% BSA was then added to each well. After a 1-hour incubation of the plate for 1 hour at room temperature with gentle mixing, the plate wells were washed, 3 times with 50 mM Tris, pH 7.5, 150 mM NaCl, 0.02% Tween-20.

| SMILES | IC50 |
| --- | --- |
| CC[C@H](C)Oc1nc2nc(C34COC(C)(C3)C4)cn2cc1C(=O)Nc1cccn([C@@H]2C[C@@H]2F)c1=O (mixture of isomers) [US20240116922, Example 42] | 0.3 nM |
| CC[C@H](C)Oc1cc2nc(C34COC(C)(C3)C4)cn2cc1C(=O)Nc1cccn([C@@H]2C[C@@H]2F)c1=O (mixture of isomers) [US20240116922, Example 96] | 0.2 nM |
| CC(C)Oc1cc2nc(C34COC(C)(C3)C4)cn2cc1C(=O)Nc1ccnn(C2CC2)c1=O [US20240116922, Example 76] | 1.6 nM |
